What was measured:
[1] = test system: Sterol Regulatory Element-Binding Proten-2 (SREBP-2); assay: Quantification of SREBP-2 translocation into the nucleus (reconstituted RLuc luminescence, COS-7 cells); type: cell-based; conditions: different concentrations of cholesterol, FIG. 19
Experimental: Translocation of SERPB-2 into the nucleus was qualified in the same manner as in Example 7. COS-7 cells were cotransfected with pcRDn-NLS and pcDRc-SREBP, and different concentrations of cholesterol were added to each microtiter well. The cells were harvested, and their lysates were mixed with a coelenterazine solution.

[2] = test system: Sterol Regulatory Element-Binding Proten-2 (SREBP-2); assay: Confirmation of SREBP-2 localization in COS-7 cells transfected with pcDRc-SREBP; type: cell-based; conditions: in the presence of cholesterol, FIG. 18
Source text: Plasmid pcDRc-AR in Examples 1 to 6 was cleaved with restriction endonucleases NotI and XhoI to remove the cDNA encoding AR, and a cDNA encoding SREBP-2 was inserted at NotI and XhoI sites thereby constructing pcDRc-SREBP (FIG. 17).

[3] = target: T1, glucocorticoid receptor (GR) (Homo sapiens, UniProt P04150); assay: Quantification of GR translocation into the nucleus (reconstituted RLuc luminescence, NIH3T3 cells); type: cell-based
T1 construct: DnaE-C (C-terminal splicing domain of DnaE intein) (N); expressed in transfected cells; host or cells: NIH3T3
T1 sequence (P04150 1-777): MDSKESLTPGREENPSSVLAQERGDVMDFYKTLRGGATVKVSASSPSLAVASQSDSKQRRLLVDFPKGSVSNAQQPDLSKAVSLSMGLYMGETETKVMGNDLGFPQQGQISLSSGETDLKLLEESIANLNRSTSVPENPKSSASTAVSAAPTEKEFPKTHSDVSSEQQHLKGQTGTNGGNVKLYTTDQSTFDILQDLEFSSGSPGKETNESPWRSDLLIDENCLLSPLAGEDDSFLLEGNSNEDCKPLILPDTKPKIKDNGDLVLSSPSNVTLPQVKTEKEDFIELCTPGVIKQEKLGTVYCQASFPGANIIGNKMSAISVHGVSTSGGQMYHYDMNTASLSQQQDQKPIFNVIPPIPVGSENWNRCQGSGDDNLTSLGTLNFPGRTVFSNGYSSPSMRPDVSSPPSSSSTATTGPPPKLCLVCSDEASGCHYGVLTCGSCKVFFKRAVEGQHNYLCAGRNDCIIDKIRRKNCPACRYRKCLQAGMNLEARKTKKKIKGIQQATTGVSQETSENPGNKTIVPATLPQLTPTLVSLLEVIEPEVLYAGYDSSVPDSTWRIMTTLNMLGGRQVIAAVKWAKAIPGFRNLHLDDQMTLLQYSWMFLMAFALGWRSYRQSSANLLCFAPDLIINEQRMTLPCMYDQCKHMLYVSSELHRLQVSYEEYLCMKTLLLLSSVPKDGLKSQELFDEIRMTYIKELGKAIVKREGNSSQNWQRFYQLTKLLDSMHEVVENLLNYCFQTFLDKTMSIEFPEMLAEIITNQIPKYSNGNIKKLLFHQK
Experimental: NIH3T3 cells were cotransfected with pcRDn-NLS and pcDRc-GR, and different concentrations of corticosterone were added to each microtiter well. The cells were harvested, and their lysates were mixed with a coelenterazine solution.

[4] = target: T1, glucocorticoid receptor (GR); assay: Confirmation of GR localization in NIH3T3 cells transfected with pcDRc-GR; type: cell-based; conditions: addition of corticosterone, FIG. 14
Experimental: Plasmid pcDRc-AR in Examples 1 to 6 was cleaved with restriction endonucleases NotI and XhoI to remove the cDNA encoding AR, and a cDNA encoding glucocorticoid receptor (GR) was inserted at NotI and XhoI sites (FIG. 13). The same experiment as in case of AR was performed using the thus-constructed plasmid.

androgen receptor (AR) [5] = target: T2, androgen receptor (AR) (Homo sapiens, UniProt P10275); assay: In vivo imaging of AR nuclear import in mouse brain with implanted cotransfected COS-7 cells; conditions: inhibitor 10 mg/kg i.p. plus DHT, average from three mice
T2 construct: DnaE-C (C-terminal splicing domain of DnaE intein) (N); expressed in transfected cells; host or cells: COS-7
T2 sequence (P10275 1-920): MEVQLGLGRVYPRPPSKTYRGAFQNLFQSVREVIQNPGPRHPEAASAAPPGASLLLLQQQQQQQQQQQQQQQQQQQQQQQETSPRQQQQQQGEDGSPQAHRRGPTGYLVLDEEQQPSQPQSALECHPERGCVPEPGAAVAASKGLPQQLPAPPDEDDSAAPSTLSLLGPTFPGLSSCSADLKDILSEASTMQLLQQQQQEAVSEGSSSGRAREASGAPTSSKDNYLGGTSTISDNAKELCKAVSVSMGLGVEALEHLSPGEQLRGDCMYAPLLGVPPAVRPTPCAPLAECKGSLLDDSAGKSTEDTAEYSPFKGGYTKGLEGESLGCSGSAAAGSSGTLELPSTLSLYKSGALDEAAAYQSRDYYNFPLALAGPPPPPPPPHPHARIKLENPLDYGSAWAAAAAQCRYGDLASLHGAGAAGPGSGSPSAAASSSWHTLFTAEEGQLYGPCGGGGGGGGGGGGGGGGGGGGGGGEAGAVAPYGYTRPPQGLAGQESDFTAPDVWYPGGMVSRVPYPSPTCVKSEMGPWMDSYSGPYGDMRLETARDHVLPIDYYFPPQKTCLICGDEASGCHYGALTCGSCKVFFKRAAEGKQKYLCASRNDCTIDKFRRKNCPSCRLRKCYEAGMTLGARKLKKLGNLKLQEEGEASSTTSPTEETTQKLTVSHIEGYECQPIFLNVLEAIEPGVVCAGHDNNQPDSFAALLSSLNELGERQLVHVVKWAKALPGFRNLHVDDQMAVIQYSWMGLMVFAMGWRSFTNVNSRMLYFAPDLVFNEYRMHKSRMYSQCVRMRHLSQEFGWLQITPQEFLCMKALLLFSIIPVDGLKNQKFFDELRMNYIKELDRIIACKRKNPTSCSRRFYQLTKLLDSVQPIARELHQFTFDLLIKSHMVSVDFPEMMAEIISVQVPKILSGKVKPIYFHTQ
Experimental: Two hours after injection, 10 μl of coelenterazine (0.14 mg/kg of body weight) was injected intracerebrally in the mice, and representatives from each mouse group (n=3) were imaged in 2-min intervals.

androgen receptor (AR) [6] = target: T2, androgen receptor (AR); assay: Cell-based in vitro assay of AR translocation into the nucleus (reconstituted RLuc luminescence, COS-7 cells)
Experimental: COS-7 cells were cotransfected with the plasmids and incubated for 12 h. The medium was replaced with DMEM supplemented with 10% FBS, and 24 h after the replacement, steroid hormones or synthetic chemicals were added to each well.
After the COS-7 cells were extensively incubated for 2 hours, the cells were harvested, and luciferase activity was evaluated by using the Renilla luciferase assay kit (Promega) with a luminometer (Minilumat LB9506; Berthold, GmbH) with an integration time of 20 sec.
The cells were harvested, and their lysates were mixed with a coelenterazine solution.

[7] = test system: Signal Transducer and Activator of Transcription 3 (STAT-3); assay: Quantification of STAT-3 translocation into the nucleus (reconstituted RLuc luminescence, HEK293 cells); type: cell-based; conditions: different concentrations of OSM
Experimental: HEK293 cells were cotransfected with pcRDn-NLS and pcDRc-STAT3, and different concentrations of OSM were added to each microtiter well. The cells were harvested, and their lysates were mixed with a coelenterazine solution.

[8] = test system: Signal Transducer and Activator of Transcription 3 (STAT-3); assay: Confirmation of STAT-3 localization in HEK293 cells transfected with pcDRc-STAT3; type: cell-based; conditions: addition of OSM, FIG. 21
Source text: Plasmid pcDRc-AR in Examples 1 to 6 was cleaved with restriction endonucleases NotI and XhoI to remove the cDNA encoding AR, and a cDNA encoding STAT-3 was inserted at NotI and XhoI sites thereby constructing pcDRc-STAT-3 (FIG. 20).

## CC(C)CCC[C@@H](C)[C@H]1CC[C@H]2[C@@H]3CC=C4C[C@@H](O)CC[C@]4(C)[C@H]3CC[C@]12C [cholesterol]
[1]
  luminescence signals of reconstituted RLuc (dose-response): increased with decreasing the concentration of cholesterol
[2]
  localization of the probe with SREBP-2: predominantly in cytoplasmic

## C[C@]12C[C@H](O)[C@H]3[C@@H](CCC4=CC(=O)CC[C@@]43C)[C@@H]1CC[C@@H]2C(=O)CO [corticosterone]
[3]; different concentrations of corticosterone
  luminescence signals of reconstituted RLuc (dose-response): increased with increasing the concentration of corticosterone
[4]
  localization of Probe I (GR): nuclear localization of Probe I

## C[C@]12CCC(=O)C=C1CC[C@@H]1[C@@H]2[C@@H](O)C[C@@]2(C)[C@H]1CC[C@]2(O)C(=O)CO [cortisol]
[3]; FIG. 15
  induction of GR translocation into the nucleus: induce the GR translocation into the nucleus

## CC12CC1(C)C(=O)N(c1cc(Cl)cc(Cl)c1)C2=O (stereo not shown) [procymidone]
Androgen receptor (AR) [5]
  luminescence intensity on stimulation with DHT together with inhibitor: decrease in luminescence intensity
Androgen receptor (AR) [6]; in the presence of DHT, FIG. 5c
  inhibition of DHT-induced luminescence / nuclear translocation of AR: inhibit the DHT-induced strong luminescence
Androgen receptor (AR) [6]; over the concentration range tested, FIG. 5b
  increase in observed luminescence intensity (AR translocation, compound alone): did not induce any increase

B1: oncostatin M (protein, UniProt P13725 26-221, looked up)
Oncostatin-M: AAIGSCSKEYRVLLGQLQKQTDLMQDTSRLLDPYIRIQGLDVPKLREHCRERPGAFPSEETLRGLGRRGFLQTLNATLGCVLHRLADLEQRLPKAQDLERSGLNIEDLEKLQMARPNILGLRNNIYCMAQLLDNSDTAEPTKAGRGASQPPTPTPASDAFQRKLEGCRFLHGYHRFMHSVGRVFSKWGESPNRSRR
notes: oncostatin M (OSM), a ligand
[7]
  luminescence signals of reconstituted RLuc (dose-response): increased with decreasing the concentration of cOSM
[8]
  localization of the probe with STAT3: nuclear localization of the probe

Source: patent US20100221719A1, “Probes for detecting protein nuclear transport and method for detecting and quantifying protein nuclear transport using the same” (priority 2004, published 2010)
